The text below walks through data of ChEMBL document CHEMBL1131152, “In vitro and in vivo activities of oligodeoxynucleotide-based thrombin inhibitors containing neutral formacetal linkages” (J Med Chem, 1998).

Each structure is given as a SMILES string.

In the assay the target is Prothrombin (Homo sapiens) (UniProt P00734). The assay is described as follows: Relative prothrombin time was determined as the activity of the test ODN (oligodeoxynucleotide) relative to that of GS-522.
As for `Cc1cn([C@H]2C[C@H](OP(=O)(O)OC[C@H]3O[C@@H](n4cnc5c(=O)nc(N)[nH]c54)C[C@@H]3OP(=O)(O)OC[C@H]3O[C@@H](n4cnc5c(=O)[nH]c(=N)[nH]c54)C[C@@H]3OP(=O)(O)OC[C@H]3O[C@@H](n4cc(C)c(=O)[nH]c4=O)C[C@@H]3OP(=O)(O)OC[C@H]3O[C@@H](n4cnc5c(=O)[nH]c(=N)[nH]c54)C[C@@H]3OP(=O)(O)OC[C@H]3O[C@@H](n4cc(C)c(=O)[nH]c4=O)C[C@@H]3OP(=O)(O)OC[C@H]3O[C@@H](n4cnc5c(=O)nc(N)[nH]c54)C[C@@H]3OCOC[C@H]3O[C@@H](n4cnc5c(=O)[nH]c(=N)[nH]c54)C[C@@H]3OP(=O)(O)OC[C@H]3O[C@@H](n4cc(C)c(=O)[nH]c4=O)C[C@@H]3OP(=O)(O)OC[C@H]3O[C@@H](n4cc(C)c(=O)[nH]c4=O)C[C@@H]3OP(=O)(O)OC[C@H]3O[C@@H](n4cnc5c(=O)[nH]c(=N)[nH]c54)C[C@@H]3OCOC[C@H]3O[C@@H](n4cnc5c(=O)nc(N)[nH]c54)C[C@@H]3O)[C@@H](COP(=O)(O)O[C@H]3C[C@H](n4cc(C)c(=O)[nH]c4=O)O[C@@H]3COP(=O)(O)O[C@H]3C[C@H](n4cnc5c(=O)nc(N)[nH]c54)O[C@@H]3COP(=O)(O)O[C@H]3C[C@H](n4cnc5c(=O)[nH]c(=N)[nH]c54)O[C@@H]3COP(=O)(O)O)O2)c(=O)[nH]c1=O`, the Relative PT is 0.8.
The value for `Cc1cn([C@H]2C[C@H](OP(=O)(O)OC[C@H]3O[C@@H](n4cnc5c(=O)nc(N)[nH]c54)C[C@@H]3OCOC[C@H]3O[C@@H](n4cnc5c(=O)[nH]c(=N)[nH]c54)C[C@@H]3OP(=O)(O)OC[C@H]3O[C@@H](n4cc(C)c(=O)[nH]c4=O)C[C@@H]3OP(=O)(O)OC[C@H]3O[C@@H](n4cnc5c(=O)[nH]c(=N)[nH]c54)C[C@@H]3OP(=O)(O)OC[C@H]3O[C@@H](n4cc(C)c(=O)[nH]c4=O)C[C@@H]3OP(=O)(O)OC[C@H]3O[C@@H](n4cnc5c(=O)nc(N)[nH]c54)C[C@@H]3OCOC[C@H]3O[C@@H](n4cnc5c(=O)[nH]c(=N)[nH]c54)C[C@@H]3OP(=O)(O)OC[C@H]3O[C@@H](n4cc(C)c(=O)[nH]c4=O)C[C@@H]3OP(=O)(O)OC[C@H]3O[C@@H](n4cc(C)c(=O)[nH]c4=O)C[C@@H]3OP(=O)(O)OC[C@H]3O[C@@H](n4cnc5c(=O)[nH]c(=N)[nH]c54)C[C@@H]3OP(=O)(O)OC[C@H]3O[C@@H](n4cnc5c(=O)nc(N)[nH]c54)C[C@@H]3O)[C@@H](COP(=O)(O)O[C@H]3C[C@H](n4cc(C)c(=O)[nH]c4=O)O[C@@H]3COP(=O)(O)O[C@H]3C[C@H](n4cnc5c(=O)nc(N)[nH]c54)O[C@@H]3COP(=O)(O)O[C@H]3C[C@H](n4cnc5c(=O)[nH]c(=N)[nH]c54)O[C@@H]3COP(=O)(O)O)O2)c(=O)[nH]c1=O` was 0.6.
For the compound `Cc1cn([C@H]2C[C@H](OP(=O)(O)OC[C@H]3O[C@@H](n4cnc5c(=O)[nH]c(=N)[nH]c54)C[C@@H]3OP(=O)(O)OC[C@H]3O[C@@H](n4cc(C)c(=O)[nH]c4=O)C[C@@H]3OP(=O)(O)OC[C@H]3O[C@@H](n4cnc5c(=O)nc(N)[nH]c54)C[C@@H]3OP(=O)(O)OC[C@H]3O[C@@H](n4cnc5c(=O)[nH]c(=N)[nH]c54)C[C@@H]3OP(=O)(O)OC[C@H]3O[C@@H](n4cc(C)c(=O)[nH]c4=O)C[C@@H]3OP(=O)(O)OC[C@H]3O[C@@H](n4cc(C)c(=O)[nH]c4=O)C[C@@H]3OP(=O)(O)OC[C@H]3O[C@@H](n4cnc5c(=O)[nH]c(=N)[nH]c54)C[C@@H]3OP(=O)(O)OC[C@H]3O[C@@H](n4cnc5c(=O)nc(N)[nH]c54)C[C@@H]3O)[C@@H](COCO[C@H]3C[C@H](n4cnc5c(=O)[nH]c(=N)[nH]c54)O[C@@H]3COP(=O)(O)O[C@H]3C[C@H](n4cnc5c(=O)nc(N)[nH]c54)O[C@@H]3COP(=O)(O)O[C@H]3C[C@H](n4cc(C)c(=O)[nH]c4=O)O[C@@H]3COP(=O)(O)O[C@H]3C[C@H](n4cc(C)c(=O)[nH]c4=O)O[C@@H]3COP(=O)(O)O[C@H]3C[C@H](n4cnc5c(=O)nc(N)[nH]c54)O[C@@H]3COP(=O)(O)O[C@H]3C[C@H](n4cnc5c(=O)nc(N)[nH]c54)O[C@@H]3COP(=O)(O)O)O2)c(=O)[nH]c1=O`, the Relative PT was 0.8.
Compound `Cc1cn([C@H]2C[C@H](OP(=O)(O)OC[C@H]3O[C@@H](n4cnc5c(=O)nc(N)[nH]c54)C[C@@H]3OP(=O)(O)OC[C@H]3O[C@@H](n4cnc5c(=O)[nH]c(=N)[nH]c54)C[C@@H]3OP(=O)(O)OC[C@H]3O[C@@H](n4cc(C)c(=O)[nH]c4=O)C[C@@H]3OP(=O)(O)OC[C@H]3O[C@@H](n4cnc5c(=O)nc(N)[nH]c54)C[C@@H]3OP(=O)(O)OC[C@H]3O[C@@H](n4cc(C)c(=O)[nH]c4=O)C[C@@H]3OP(=O)(O)OC[C@H]3O[C@@H](n4cnc5c(=O)nc(N)[nH]c54)C[C@@H]3OCOC[C@H]3O[C@@H](n4cnc5c(=O)[nH]c(=N)[nH]c54)C[C@@H]3OP(=O)(O)OC[C@H]3O[C@@H](n4cc(C)c(=O)[nH]c4=O)C[C@@H]3OP(=O)(O)OC[C@H]3O[C@@H](n4cc(C)c(=O)[nH]c4=O)C[C@@H]3OP(=O)(O)OC[C@H]3O[C@@H](n4cnc5c(=O)[nH]c(=N)[nH]c54)C[C@@H]3OP(=O)(O)OC[C@H]3O[C@@H](n4cnc5c(=O)nc(N)[nH]c54)C[C@@H]3O)[C@@H](COP(=O)(O)O[C@H]3C[C@H](n4cc(C)c(=O)[nH]c4=O)O[C@@H]3COP(=O)(O)O[C@H]3C[C@H](n4cnc5c(=O)nc(N)[nH]c54)O[C@@H]3COCO[C@H]3C[C@H](n4cnc5c(=O)nc(N)[nH]c54)O[C@@H]3COP(=O)(O)O)O2)c(=O)[nH]c1=O` registered a Relative PT of 0.7.
Turning to `Cc1cn([C@H]2C[C@H](OCOC[C@H]3O[C@@H](n4cnc5c(=O)nc(N)[nH]c54)C[C@@H]3OP(=O)(O)OC[C@H]3O[C@@H](n4cc(C)c(=O)[nH]c4=O)C[C@@H]3OP(=O)(O)OC[C@H]3O[C@@H](n4cnc5c(=O)nc(N)[nH]c54)C[C@@H]3OP(=O)(O)OC[C@H]3O[C@@H](n4cnc5c(=O)[nH]c(=N)[nH]c54)C[C@@H]3OP(=O)(O)OC[C@H]3O[C@@H](n4cc(C)c(=O)[nH]c4=O)C[C@@H]3OP(=O)(O)OC[C@H]3O[C@@H](n4cc(C)c(=O)[nH]c4=O)C[C@@H]3OP(=O)(O)OC[C@H]3O[C@@H](n4cnc5c(=O)[nH]c(=N)[nH]c54)C[C@@H]3OP(=O)(O)OC[C@H]3O[C@@H](n4cnc5c(=O)nc(N)[nH]c54)C[C@@H]3O)[C@@H](COP(=O)(O)O[C@H]3C[C@H](n4cnc5c(=O)[nH]c(=N)[nH]c54)O[C@@H]3COP(=O)(O)O[C@H]3C[C@H](n4cnc5c(=O)nc(N)[nH]c54)O[C@@H]3COP(=O)(O)O[C@H]3C[C@H](n4cc(C)c(=O)[nH]c4=O)O[C@@H]3COP(=O)(O)O[C@H]3C[C@H](n4cc(C)c(=O)[nH]c4=O)O[C@@H]3COP(=O)(O)O[C@H]3C[C@H](n4cnc5c(=O)nc(N)[nH]c54)O[C@@H]3COP(=O)(O)O[C@H]3C[C@H](n4cnc5c(=O)nc(N)[nH]c54)O[C@@H]3COP(=O)(O)O)O2)c(=O)[nH]c1=O`, the Relative PT came to 0.8.
